Counter-ions that a name gives are not always drawn. Like-named read-outs stand apart in the source and are kept apart here.
Key:
DPP IV [1] = molecular target: T1, DPP IV (Felis catus, UniProt Q9N2I7); experiment: PK/PD studies in cats, summary; type: in vivo, cat
T1 construct: Blood samples for the determination of this compound and DPP IV activity were collected; from tissue; host or cells: plasma of domestic short hair / purpose-bred cats dosed orally
Method: PK/PD studies to measure the effect of different doses of 1-[(3-cyano-pyridin-2-yl)methyl]-3-methyl-7-(2-butyn-1-yl)-8-[3-(R)-amino-piperidin-1-yl]-xanthine CL on DPP IV activity, are presented in the experimental part of this application. […] Larger degrees of DPP IV inhibition, e.g. more than 80% in 24 h can be reached by increased doses. The duration of DPP IV inhibition can be prolonged with higher dosages.

plasma DPP IV [2] = molecular target: T2, plasma DPP IV (Rattus norvegicus, UniProt P14740); experiment: Inhibition of plasma DPP IV activity in vitro, rat plasma; type: biochemical
T2 construct: from tissue
T2 sequence (P14740 37-767 limits assumed): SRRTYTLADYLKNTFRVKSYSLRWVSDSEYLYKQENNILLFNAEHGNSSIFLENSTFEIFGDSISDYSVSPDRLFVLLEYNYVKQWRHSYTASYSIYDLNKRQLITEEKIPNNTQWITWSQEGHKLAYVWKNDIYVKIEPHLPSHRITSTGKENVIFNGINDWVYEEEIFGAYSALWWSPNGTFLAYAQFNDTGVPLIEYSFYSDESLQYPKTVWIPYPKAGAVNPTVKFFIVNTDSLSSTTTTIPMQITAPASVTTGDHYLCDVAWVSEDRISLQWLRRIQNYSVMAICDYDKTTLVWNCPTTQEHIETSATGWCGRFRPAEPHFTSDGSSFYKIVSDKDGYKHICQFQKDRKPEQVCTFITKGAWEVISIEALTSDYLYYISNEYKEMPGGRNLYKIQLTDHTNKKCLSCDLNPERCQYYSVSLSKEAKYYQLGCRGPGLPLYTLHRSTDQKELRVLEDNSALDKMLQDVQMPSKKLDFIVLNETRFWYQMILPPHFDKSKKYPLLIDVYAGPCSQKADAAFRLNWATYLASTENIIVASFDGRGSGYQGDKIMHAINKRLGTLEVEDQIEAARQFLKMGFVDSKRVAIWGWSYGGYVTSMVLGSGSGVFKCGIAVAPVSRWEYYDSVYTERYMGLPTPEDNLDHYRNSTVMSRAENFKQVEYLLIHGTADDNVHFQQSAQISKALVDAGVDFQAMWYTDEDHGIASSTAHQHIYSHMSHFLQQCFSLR
Method: Studies were also conducted to assess the inhibitory effect of this compound on plasma DPP IV activity in several species.

M1 muscarinic receptors = M1 muscarinic receptors (Homo sapiens, UniProt P11229); experiment: Selectivity panel, radio ligand binding assay: M1; conditions: only interaction observed in full panel of receptors, ion channels and enzymes
Chain of M1 muscarinic receptors (P11229 whole entry): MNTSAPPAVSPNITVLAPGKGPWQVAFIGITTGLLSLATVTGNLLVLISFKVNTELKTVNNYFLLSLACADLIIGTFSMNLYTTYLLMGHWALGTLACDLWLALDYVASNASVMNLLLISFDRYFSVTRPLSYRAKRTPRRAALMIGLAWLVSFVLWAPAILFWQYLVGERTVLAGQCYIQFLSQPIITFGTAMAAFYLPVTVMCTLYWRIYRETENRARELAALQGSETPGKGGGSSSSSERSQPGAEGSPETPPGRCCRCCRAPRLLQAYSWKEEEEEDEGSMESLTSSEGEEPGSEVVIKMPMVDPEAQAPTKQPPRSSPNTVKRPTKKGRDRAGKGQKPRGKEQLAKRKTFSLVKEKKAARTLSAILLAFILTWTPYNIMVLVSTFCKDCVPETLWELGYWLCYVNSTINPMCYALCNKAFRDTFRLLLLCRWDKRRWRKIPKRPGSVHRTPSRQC
Method: In selectivity assays as described in Dörje et al. (1991), J. Pharmacol. Exp. Ther., vol. 256, p. 727-733, chapter Radio ligand binding studies, p. 729, using the full panel of receptors, ion channels and enzymes, the only interaction observed with 1-[(3-cyano-pyridin-2-yl)methyl]-3-methyl-7-(2-butyn-1-yl)-8-[3-(R)-amino-piperidin-1-yl]-xanthine monohydrochloride was with M1 muscarinic receptors, with IC50 in a binding assay of 3 μM.

plasma DPP IV [3] = experiment: Plasma DPP IV activity after oral administration, Beagle dog; type: in vivo; conditions: 3 mg/kg oral, 24 hours post dose
Method: The effect of 1-[(3-cyano-pyridin-2-yl)methyl]-3-methyl-7-(2-butyn-1-yl)-8-[3-(R)-amino-piperidin-1-yl]-xanthine on plasma DPP IV activity after oral administration was investigated in the rat, the Beagle dog and the Rhesus monkey. These investigations were conducted as described in the following.
Overnight fasted male Beagle dogs (n=4 per group) were administered oral doses of 1-[(3-cyano-pyridin-2-yl)methyl]-3-methyl-7-(2-butyn-1-yl)-8-[3-(R)-amino-piperidin-1-yl]-xanthine monohydrochloride at 3 and 12 mg/kg body weight. Blood samples were drawn from a butterfly inserted in either the right or left forearm vein. Blood was collected in EDTA tubes prior to administration of 1-[(3-cyano-pyridin-2-yl)methyl]-3-methyl-7-(2-butyn-1-yl)-8-[3-(R)-amino-piperidin-1-yl]-xanthine monohydrochloride and subsequently at 1, 2, 4, 8, and 24 hour time points post dose. Plasma was prepared following blood collection and frozen for determination of DPP-IV activity.

diabetic db/db mice = experiment: Delayed OGTT in diabetic db/db mice; type: in vivo, mouse; conditions: 1 mg/kg 16 hours before the test
Method: A delayed oral glucose tolerance test (OGTT) was applied to diabetic db/db mice and diabetic ZDF rats, as describes in the following.
Male obese diabetic db/db mice (C57BL/KSJ@Rj-db) were obtained from Janvier (France). Animals were fed ad libitum with a standard pelleted diet (Diet No. 3438 [containing 19% protein, 4.5% fat], Provimi Kliba, Switzerland) and had free access to water. Animals were housed in groups with a 12 h/12 h light/dark cycle (lights out between 6 p.m. and 6 a.m.). The mice used for these experiments were between 9 and 10 weeks of age.
The day before the OGTT, a blood sample from db/db mice or ZDF rats fasted for 2 hours was obtained by cutting the tip of the tail without anaesthesia and the animals were randomized for glucose (n=7 per group). The animals were fed again for 2 hours and then orally administered with either vehicle or 1-[(3-cyano-pyridin-2-yl)methyl]-3-methyl-7-(2-butyn-1-yl)-8-[3-(R)-amino-piperidin-1-yl]-xanthine monohydrochloride at doses between 0.3 and 3 mg/kg bw. A basal blood sample (pre-load) was obtained the next morning after overnight fasting for 16 hours by cutting the tip of the tail without anaesthesia. […] Additional blood samples were taken from the tip of the tail 30 min, 60 min, 90 min, 120 min, and 180 min after the glucose load, and blood glucose was measured. […]

DPP IV [4] = molecular target: T1, DPP IV; experiment: Exploratory single dose PK/PD (0.3/1.0/3.0 mg/kg) in cats: DPP IV activity; type: in vivo, cat; conditions: for response vs control in vivo at 0.3 mg/kg: 0.3 mg/kg single oral; for response vs control in vivo at 0.3 mg/kg / response vs control in vivo at 1 mg/kg / response vs control in vivo at 3 mg/kg: read-out: DPP IV activity in cat plasma (0 h = 100%); for response vs control in vivo at 1 mg/kg: 1 mg/kg single oral; for response vs control in vivo at 3 mg/kg: 3 mg/kg single oral
Method: The aim of this first study was to investigate the PK/PD of 1-[(3-cyano-pyridin-2-yl)methyl]-3-methyl-7-(2-butyn-1-yl)-8-[3-(R)-amino-piperidin-1-yl]-xanthine in the cat after a single oral administration of 0, 0.3, 1.0 and 3.0 mg/kg body weight. For this purpose, twelve male clinically healthy adult domestic short hair cats with a body weight range of 3.5-4.5 kg were used. All animals were treated once orally with placebo or the respective 1-[(3-cyano-pyridin-2-yl)methyl]-3-methyl-7-(2-butyn-1-yl)-8-[3-(R)-amino-piperidin-1-yl]-xanthine monohydrochloride dose formulation. Blood samples for the determination of this compound and DPP IV activity were collected at 0 (pre-dose), 0.5, 1, 2, 4, 8, 24, 36, 48, 72 and 96 hours after treatment and the activity of DPP IV was determined like in example 6.
The resulting pharmacodynamic data from this experiment are summarized in following Table 3; the value of 0 h was set to 100% for each treatment.

T1 sequence (Q9N2I7 38-765 limits assumed): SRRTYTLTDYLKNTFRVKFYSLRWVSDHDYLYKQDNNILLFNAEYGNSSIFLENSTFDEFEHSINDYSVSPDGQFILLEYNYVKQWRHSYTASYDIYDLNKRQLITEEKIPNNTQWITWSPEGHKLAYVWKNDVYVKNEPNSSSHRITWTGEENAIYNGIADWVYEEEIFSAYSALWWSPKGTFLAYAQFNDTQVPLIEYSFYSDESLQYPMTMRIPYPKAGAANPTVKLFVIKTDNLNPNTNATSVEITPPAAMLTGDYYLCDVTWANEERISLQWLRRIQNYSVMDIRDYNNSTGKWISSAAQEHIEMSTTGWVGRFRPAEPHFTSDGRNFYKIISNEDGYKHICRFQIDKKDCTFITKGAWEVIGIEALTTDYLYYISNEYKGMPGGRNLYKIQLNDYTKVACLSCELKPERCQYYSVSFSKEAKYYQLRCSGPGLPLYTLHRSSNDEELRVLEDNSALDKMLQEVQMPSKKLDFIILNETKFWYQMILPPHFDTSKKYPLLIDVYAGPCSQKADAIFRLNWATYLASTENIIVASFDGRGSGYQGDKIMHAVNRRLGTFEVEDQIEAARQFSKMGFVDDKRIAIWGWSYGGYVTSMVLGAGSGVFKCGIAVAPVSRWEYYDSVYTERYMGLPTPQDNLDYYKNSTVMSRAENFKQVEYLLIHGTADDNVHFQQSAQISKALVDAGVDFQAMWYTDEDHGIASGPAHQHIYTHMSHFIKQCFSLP

In the case of `CC#CCn1c(N2CCC[C@@H](N)C2)nc2c1c(=O)n(Cc1ncccc1C#N)c(=O)n2C` [1-[(3-cyano-pyridin-2-yl)methyl]-3-methyl-7-(2-butyn-1-yl)-8-[3-(R)-amino-piperidin-1-yl]-xanthine monohydrochloride], the “doses leading to a significant DPP IV inhibition” value (DPP IV [1]) is reported as “more than 0.1 mg/kg”, the “DPP IV inhibition in 24 h” value (DPP IV [1]; achieved with 1 to 3 mg/kg (˜3 to 9 mg per cat, or 4 to 30 nmol/l in cat plasma)) is reported as “more than 70%” and the IC50 (plasma DPP IV [2]) is reported as about 0.8 nM. The IC50 (M1 muscarinic receptors) was 3000 nM, the “inhibition of plasma DPP IV activity” value (plasma DPP IV [3]) was 76% and the “reduction of glucose AUC in OGTT” value (diabetic db/db mice) was 39%. The response vs control in vivo at 0.3 mg/kg (DPP IV [4]; 0.5 h) was 15%, the response vs control in vivo at 0.3 mg/kg (DPP IV [4]; 1 h) was 13% and the response vs control in vivo at 0.3 mg/kg (DPP IV [4]; 2 h) was 13%. It also gave a response vs control in vivo at 0.3 mg/kg (DPP IV [4]; 4 h) of 15%, a response vs control in vivo at 0.3 mg/kg (DPP IV [4]; 8 h) of 19% and a response vs control in vivo at 0.3 mg/kg (DPP IV [4]; 24 h) of 54%. For the same compound, the response vs control in vivo at 0.3 mg/kg (DPP IV [4]; 36 h) was 84%, the response vs control in vivo at 0.3 mg/kg (DPP IV [4]; 48 h) was 93% and the response vs control in vivo at 0.3 mg/kg (DPP IV [4]; 72 h) was 95%. The response vs control in vivo at 0.3 mg/kg (DPP IV [4]; 96 h) was 95%, the response vs control in vivo at 1 mg/kg (DPP IV [4]; 0.5 h) was 11% and the response vs control in vivo at 1 mg/kg (DPP IV [4]; 1 h) was 11%. It also gave a response vs control in vivo at 1 mg/kg (DPP IV [4]; 2 h) of 12%, a response vs control in vivo at 1 mg/kg (DPP IV [4]; 4 h) of 12% and a response vs control in vivo at 1 mg/kg (DPP IV [4]; 8 h) of 15%. The response vs control in vivo at 1 mg/kg (DPP IV [4]; 24 h) was 42%, the response vs control in vivo at 1 mg/kg (DPP IV [4]; 36 h) was 67% and the response vs control in vivo at 1 mg/kg (DPP IV [4]; 48 h) was 80%. The response vs control in vivo at 1 mg/kg (DPP IV [4]; 72 h) was 91%, the response vs control in vivo at 1 mg/kg (DPP IV [4]; 96 h) was 92% and the response vs control in vivo at 3 mg/kg (DPP IV [4]; 0.5 h) was 16%. For the same compound, the response vs control in vivo at 3 mg/kg (DPP IV [4]; 1 h) was 13%, the response vs control in vivo at 3 mg/kg (DPP IV [4]; 2 h) was 12% and the response vs control in vivo at 3 mg/kg (DPP IV [4]; 4 h) was 14%. For the same compound, the response vs control in vivo at 3 mg/kg (DPP IV [4]; 8 h) was 17%, the response vs control in vivo at 3 mg/kg (DPP IV [4]; 24 h) was 49% and the response vs control in vivo at 3 mg/kg (DPP IV [4]; 36 h) was 66%. It also gave a response vs control in vivo at 3 mg/kg (DPP IV [4]; 48 h) of 85%, a response vs control in vivo at 3 mg/kg (DPP IV [4]; 72 h) of 101% and a response vs control in vivo at 3 mg/kg (DPP IV [4]; 96 h) of 95%. For the same compound, the “inhibition of DPP IV” value (DPP IV [4]; all doses (0.3, 1.0, 3.0 mg/kg single oral)) was “more than 80%”.

From patent publication US20140228287A1, “1-[(3-CYANO-PYRIDIN-2-YL)METHYL]-3-METHYL-7-(2-BUTYN-1-YL)-8-[3-(R)-AMINO-PIPERIDIN-1-YL]-AXANTHINE FOR THE TREATMENT OF A METABOLIC DISORDER OF A PREDOMINANTLY CARNIVOROUS NON-HUMAN ANIMAL” (BOEHRINGER INGELHEIM VETMEDICA GMBH, priority 2010, published 2014)
